Read-outs that look alike come from different tables or passages of the source. Starred links: 1 amine or outer side, 2 acyl side, 3 side chain; linkers in the order of their positions; H or OH if unused. Non-standard residues stand in square brackets, D forms with d. Residues, ends and D or L forms follow the SMILES beside them. 2Furoyl(5-aminomethyl) = O=C(c1ccc(CN[*:1])o1)[*:2]; X2 = O=C([C@@H]1CC[C@H](CN[*:1])O1)[*:2]; X1 = O=C(C1CCC(CN[*:1])O1)[*:2]
Columns and labels:
[1] = tested on: MiaPaCa.2 (human pancreas); assay: MTT cytotoxicity assay, MiaPaCa.2 cells; assay type: cell-based; details: 48 hours
Text: (§1) The following cell lines were used.

[2] = tested on: HeP-2 (larynx); assay: MTT cytotoxicity assay, HeP-2 cells; assay type: cell-based, human; details: human, 48 hours
Text: as §1

[3] = tested on: KB (oral); assay: MTT cytotoxicity assay, KB cells; assay type: cell-based, human; details: human, 48 hours
Text: as §1

[4] = tested on: HeP-G2 (liver); assay: MTT cytotoxicity assay, HeP-G2 cells; assay type: cell-based, human; details: human, 48 hours
Text: as §1

[5] = tested on: PA1 (human ovary); assay: MTT cytotoxicity assay, PA1 cells; assay type: cell-based; details: 48 hours
Text: as §1

[6] = tested on: ECV-304 (endothelial); details: ECV-304 cells, 48 hours, NA = Not Active
Text: Although sterile phosphate buffered saline was used to prepare each stock solution for the testing described in the following example, other diluents may be used such as buffered saline, isotonic NaCl, Ringer's solution, water, distilled water, polyethylene glycol (neat or in water), Tween in water, dimethylsulfoxide up to 50% in water, propylene glycol (neat or in water), phosphate buffered saline, balanced salt solution, glycerol, and other conventional fluids that are suitable for parentral administration. To obtain a pH in the range of approximately 3.5 to 7.0, for each stock solution, the pH can be adjusted by using 1N HCl for lowering the pH or 1N NaOH for raising the pH, although other buffers such as citrate buffer, phosphate buffer and the like or other conventional agents for adjusting the pH can be used.
The MTT assay is based on the principle of uptake of MTT [3-[4,5-dimethylthiazol-2-yl]-2,5-diphenyl tetrazolium bromide], a tetrazolium salt, by the metabolically active cells where it is metabolized by active mitochondria into a blue colored formazan product which can be read spectrophotometrically. […] The formazan crystals formed inside the cells were dissolved with a detergent comprising of 10% Sodium dodecyl sulfate and 0.01 N HCl and optical density read on a multi-scan ELISA reader. The optical density was directly proportional to the number of proliferating and metabolically active cells. The following cell lines were used. PA1(human ovary), PTC (colon), HeP-2 (larynx), MiaPaCa.2 (human pancreas), KB (oral), ECV-304 (endothelial) and HeP-G2 (liver).

[7] = tested on: PTC (colon); assay: MTT cytotoxicity assay, PTC cells; assay type: cell-based, human; details: human, 48 hours
Text: as §1

| SMILES | Percent Cytotoxicity ([1]; human, 1 nM) [%] | Percent Cytotoxicity ([1]; human, 10 nM) [%] | Percent Cytotoxicity ([1]; human, 100 nM) [%] | Percent Cytotoxicity ([2]; 1 nM) [%] | Percent Cytotoxicity ([2]; 10 nM) [%] | Percent Cytotoxicity ([2]; 100 nM) [%] | Percent Cytotoxicity ([2]; 1 μM) [%] | Percent Cytotoxicity ([3]; 1 nM) [%] | Percent Cytotoxicity ([3]; 10 nM) [%] | Percent Cytotoxicity ([3]; 100 nM) [%] | Percent Cytotoxicity ([3]; 1 μM) [%] | Percent Cytotoxicity ([5]; human, 1 nM) [%] | Percent Cytotoxicity ([5]; human, 10 nM) [%] | Percent Cytotoxicity ([5]; human, 100 nM) [%] | Percent Cytotoxicity ([5]; human, 1 μM) [%] | Percent Cytotoxicity ([6]; peptide 1 nM) [%] | Percent Cytotoxicity ([7]; 1 nM) [%] | Percent Cytotoxicity ([7]; 10 nM) [%] | Percent Cytotoxicity ([7]; 100 nM) [%] | Percent Cytotoxicity ([6]; peptide 10 nM) [%] | also measured |
| --- | --- | --- | --- | --- | --- | --- | --- | --- | --- | --- | --- | --- | --- | --- | --- | --- | --- | --- | --- | --- | --- |
| CSCC[C@H](NC(=O)[C@@H](N)CC(C)C)C(=O)N[C@@H](Cc1ccc(O)cc1)C(=O)NC[C@H]1O[C@H](C(=O)N[C@H](C(=O)N[C@@H](Cc2ccc(O)cc2)C(=O)N[C@@H](CC(C)C)C(=O)N[C@@H](CCCCN)C(=O)O)[C@@H](C)O)[C@@H](OCc2ccccc2)[C@@H]1OCc1ccccc1 [SEQ ID NO: 3, Leu-Met-Tyr-Saa2-Thr-Tyr-Leu-Lys] | 21.8 ± 2.1 | 24.0 ± 2.7 | 17.9 ± 1.8 | 12.6 ± 2.8 | 15.4 ± 1.3 | 13.9 ± 0.5 | 10.8 ± 0.5 | 12.9 ± 1.3 | 17.7 ± 0.5 | 14.9 ± 1.1 | 9.5 ± 0.1 | 16.8 ± 1.4 | 18.0 ± 1.8 | 12.5 ± 0.0 | 10.8 ± 0.6 |  |  |  |  |  | Percent Cytotoxicity ([1]; human, 1 μM): 13.9 ± 0.4%; Percent Cytotoxicity ([4]; 1 nM): 12.3 ± 0.4%; Percent Cytotoxicity ([4]; 10 nM): 10.7 ± 0.1%; Percent Cytotoxicity ([4]; 100 nM): 9.5 ± 1.0%; Percent Cytotoxicity ([4]; 1 μM): 6.9 ± 0.0% |
| CSCC[C@H](NC(=O)[C@@H](N)CC(C)C)C(=O)NCc1ccc(C(=O)N[C@@H](Cc2ccc(O)cc2)C(=O)N[C@@H](CC(C)C)C(=O)N[C@@H](CCCCN)C(=O)O)o1 [SEQ ID NO: 18, Leu-Met-Saa1-Tyr-Leu-Lys] (H-LM[2Furoyl(5-aminomethyl)]YLK-OH) | 24.8 ± 2.0 | 21.0 ± 2.6 | 18.5 ± 0.6 | 47.0 ± 4.8 | 38.3 ± 2.0 | 35.8 ± 2.4 | 32.9 ± 2.6 | 15.9 ± 1.0 | 12.0 ± 0.3 | 14.0 ± 1.0 | 9.3 ± 0.4 | 18.3 ± 1.8 | 22.8 ± 2.9 | 21.8 ± 2.1 | 20.3 ± 2.6 | 11.0 ± 0.6 | 19.0 ± 1.6 | 28.4 ± 1.0 | 23.9 ± 2.9 |  | Percent Cytotoxicity ([1]; human, 1 μM): 15.0 ± 0.6%; Percent Cytotoxicity ([7]; 1 μM): 21.7 ± 1.5% |
| CSCC[C@H](NC(=O)[C@@H](N)CC(C)C)C(=O)N[C@@H](Cc1ccc(O)cc1)C(=O)NCc1ccc(C(=O)N[C@@H](Cc2ccc(O)cc2)C(=O)N[C@@H](CC(C)C)C(=O)N[C@@H](CCCCN)C(=O)O)o1 [SEQ ID NO: 10, Leu-Met-Tyr-Saa1-Tyr-Leu-Lys] (H-LMY[2Furoyl(5-aminomethyl)]YLK-OH) | 14.9 ± 1.9 | 12.0 ± 1.7 | 9.0 ± 0.6 | 35.4 ± 2.9 | 32.0 ± 2.1 | 31.8 ± 3.1 | 28.9 ± 2.1 | 32.0 ± 2.5 | 31.9 ± 2.9 | 29.6 ± 0.7 | 26.0 ± 1.8 | 37.5 ± 3.8 | 32.0 ± 2.9 | 31.0 ± 2.7 | 28.4 ± 2.2 | 15.2 ± 1.0 | 30.5 ± 3.2 | 28.0 ± 2.2 | 25.6 ± 2.2 | 12.9 ± 0.5 | Percent Cytotoxicity ([6]; peptide 100 nM): 9.4 ± 0.2%; Percent Cytotoxicity ([7]; 1 μM): 21.8 ± 2.8% |
| CSCC[C@H](N)C(=O)NCC1CCC(C(=O)N[C@@H](Cc2ccc(O)cc2)C(=O)N[C@@H](CC(C)C)C(=O)O)O1 (stereo partly shown) [SEQ ID NO: 16, Met-Saa3-Tyr-Leu] |  |  |  | 16.5 ± 1.6 | 19.2 ± 1.6 | 12.6 ± 0.5 | 10.9 ± 1.1 | 9.3 ± 0.3 | 9.7 ± 0.4 | 3.2 ± 0.1 |  | 24.0 ± 2.1 | 22.9 ± 2.1 | 19.0 ± 1.0 | 16.8 ± 1.8 | 9.3 ± 0.6 |  |  |  | 7.9 ± 0.1 | Percent Cytotoxicity ([4]; 1 nM): 11.0 ± 1.1%; Percent Cytotoxicity ([4]; 10 nM): 12.8 ± 0.7%; Percent Cytotoxicity ([4]; 100 nM): 11.4 ± 0.7%; Percent Cytotoxicity ([4]; 1 μM): 9.8 ± 0.7% |
| CSCC[C@H](NC(=O)[C@@H](N)CC(C)C)C(=O)NCC1CCC(C(=O)N[C@H](C(=O)N[C@@H](Cc2ccc(O)cc2)C(=O)N[C@@H](CC(C)C)C(=O)N[C@@H](CCCCN)C(=O)O)[C@@H](C)O)O1 (stereo partly drawn) [SEQ ID NO: 8, Leu-Met-Saa3-Thr-Tyr-Leu-Lys] (H-LM[X1]TYLK-OH) |  |  |  |  |  |  |  |  |  |  |  |  |  |  |  | 15.3 ± 1.6 |  |  |  | 12.7 ± 1.6 | Percent Cytotoxicity ([1]; MiaPaCa.2 cells, peptide 1 nM, NA = Not Active): 22.9 ± 2.2%; Percent Cytotoxicity ([1]; MiaPaCa.2 cells, peptide 10 nM, NA = Not Active): 25.5 ± 2.9%; Percent Cytotoxicity ([1]; MiaPaCa.2 cells, peptide 100 nM, NA = Not Active): 22.9 ± 2.6%; Percent Cytotoxicity ([1]; MiaPaCa.2 cells, peptide 1 μM, NA = Not Active): 19.0 ± 0.6%; Percent Cytotoxicity ([6]; peptide 100 nM): 10.8 ± 2.9%; Percent Cytotoxicity ([6]; peptide 1 μM): 7.9 ± 0.1%; Percent Cytotoxicity ([5]; PA1 cells, peptide 1 nM, NA = Not Active): 12.7 ± 1.9%; Percent Cytotoxicity ([5]; PA1 cells, peptide 10 nM, NA = Not Active): 18.0 ± 1.0%; Percent Cytotoxicity ([5]; PA1 cells, peptide 100 nM, NA = Not Active): 14.8 ± 1.9%; Percent Cytotoxicity ([5]; PA1 cells, peptide 1 μM, NA = Not Active): 9.6 ± 1.0% |
| CSCC[C@H](NC(=O)[C@@H](N)CC(C)C)C(=O)N[C@@H](Cc1ccc(O)cc1)C(=O)NC[C@H]1CC[C@@H](C(=O)N[C@@H](Cc2ccc(O)cc2)C(=O)N[C@@H](CC(C)C)C(=O)N[C@@H](CCCCN)C(=O)O)O1 [SEQ ID NO: 13, Leu-Met-Tyr-Saa4-Tyr-Leu-Lys] (H-LMY[X2]YLK-OH) | 17.5 ± 1.9 | 14.0 ± 0.6 | 8.0 ± 0.6 | 23.0 ± 2.1 | 21.8 ± 1.8 | 17.9 ± 1.9 | 16.4 ± 0.6 | 30.0 ± 2.8 | 27.9 ± 2.1 | 26.9 ± 2.1 | 21.4 ± 2.1 | 44.0 ± 3.9 | 41.0 ± 4.2 | 38.0 ± 3.9 | 35.5 ± 2.4 | 23.0 ± 1.6 | 28.5 ± 2.0 | 26.0 ± 2.9 | 22.8 ± 2.1 | 21.0 ± 2.6 | Percent Cytotoxicity ([6]; peptide 100 nM): 18.0 ± 1.6%; Percent Cytotoxicity ([6]; peptide 1 μM): 12.1 ± 1.3%; Percent Cytotoxicity ([7]; 1 μM): 20.8 ± 1.8% |
| CSCC[C@H](N)C(=O)NCc1ccc(C(=O)N[C@@H](Cc2ccc(O)cc2)C(=O)N[C@@H](CC(C)C)C(=O)O)o1 [SEQ ID NO: 14, Met-Saa1-Tyr-Leu] | 17.0 ± 1.7 | 13.9 ± 1.1 | 7.0 ± 0.3 | 11.0 ± 1.9 | 10.6 ± 1.1 | 6.0 ± 0.8 |  | 14.5 ± 0.4 | 12.9 ± 0.5 |  |  |  |  |  |  | 12.7 ± 0.4 | 28.9 ± 2.2 | 26.9 ± 2.9 | 21.8 ± 1.0 | 13.0 ± 0.6 | Percent Cytotoxicity ([6]; peptide 100 nM): 6.0 ± 0.0%; Percent Cytotoxicity ([7]; 1 μM): 15.0 ± 0.5% |

Reference: patent US7060678B2, “Peptides comprising furanoid sugar amino acids for the treatment of cancer” (Dabur Research Foundation, priority 2003, dated 2006)
